Test results as given in patent publication US10112890B2, “Compound, salt of compound, external agent for skin, cosmetic, and food additive” (SHOWA DENKO K.K., priority 2015, dated 2018).

Tested on: three-dimensionally cultured human skin model ("EPI-606X")
Assay: Skin permeability test
Type: in vitro ADME
Conditions: 24 hours; for Permeability (%): permeability into the skin model, 0.2% by mass sample solution in PBS (-), pH 7.4, 700 μL, 37° C., skin model extract plus receiver liquid, HPLC, (A/1400)×100; for permeability compared with compound (9)-101 / permeability compared with sodium pantothenate: skin model, comparison in words
Text: The compound (1)-301, the compound (1)-302, the compound (9)-101, and sodium pantothenate (manufactured by Tokyo Kasei Kogyo Co., Ltd., the compound represented by the following formula) were respectively dissolved in Dubecco's PBS (−), and the pH of a solution was adjusted to 7.4 using a sodium hydroxide aqueous solution or hydrochloric acid, to obtain a solution having a concentration of 0.2% by mass as a sample solution. A three-dimensionally cultured human skin model (“EPI-606X”, manufactured by KURABO INDUSTRIES LTD.) was set such that the lower portion thereof was immersed in a 6-well plate containing the PBS solution (1 mL), and was allowed to stand in an incubator for 30 minutes under conditions of 37° C. at a carbon dioxide concentration of 5%. Next, the PBS solution was replaced with an HBSS (−) solution (1 mL) (hereinafter, referred to as a “receiver liquid”), the sample solution (700 μL) obtained in the above-described manner was added to the skin model, and the skin model was allowed to stand in an incubator under conditions of 37° C. at a carbon dioxide concentration of 5%. After the skin model was allowed to stand for 24 hours, the sample solution on the skin model was removed using a pipette, the skin model was taken out from the well and washed with the PBS (−) solution. Subsequently, a slice was cut from the skin model and put into a 2 mL tube. Methanol (1 mL) and stainless steel beads (manufactured by Tomy Company, Ltd., diameter of 5.5 mm) were added to the tube, and the slice was crushed under conditions of 2000 rpm for 10 seconds ten times using MULTI BEADS SHOCKER (manufactured by Yasui Kikai Corporation). After the slice was crushed, the obtained solution was transferred to a 2 mL Eppendorf tube and centrifuged at 12000 rpm for 5 minutes, the supernatant was filtered using a filter (pore size of 0.22 μm), thereby obtaining a skin model extract. Next, the compound (1)-301, the compound (1)-302, the compound (9)-101, and sodium pantothenate in the skin model extract and the receiver liquid were quantified by analyzing each of the compounds (test substances) using HPLC described above, and a total value A (μg) of these quantitative values was calculated. Further, the permeability into the skin model (%) of each of the compound (1)-301 (Example 1), the compound (1)-302 (Example 2), the compound (9)-101 (Reference Example 1), and sodium pantothenate (Comparative Example 1) added to the skin model was calculated according to Equation (i). Permeability (%)=(A/1400)×100 (i)

## CCCCCCCCCCCCCCCC(=O)OCC(C)(C)C(O)C(=O)NCCC(=O)O (stereo not drawn) [Compound (1)-301, 3-[N-(4-hexadecanoyloxy-3,3-dimethyl-2-hydroxybutyryl)amino]propionic acid]
  Permeability (%): 41 ± 4.7%
  permeability compared with compound (9)-101: clearly higher permeability
  permeability compared with sodium pantothenate: clearly higher permeability

## CCCCCCCCC(CCCCCC)C(=O)OCC(C)(C)C(O)C(=O)NCCC(=O)O (stereo not drawn) [Compound (1)-302, 3-[N-(4-(2-hexyldecanoyl)oxy-3,3-dimethyl-2-hydroxybutyryl)amino]propionic acid]
  Permeability (%): 44 ± 2.7%
  permeability compared with compound (9)-101: clearly higher permeability
  permeability compared with sodium pantothenate: clearly higher permeability

## CCCCCCCCCC(=O)OCC(C)(C)C(O)C(=O)NCCC(=O)O (stereo not drawn) [Compound (9)-101, 3-[N-(4-decanoyloxy-3,3-dimethyl-2-hydroxybutyryl)amino]propionic acid, reference compound]
  Permeability (%): 29 ± 0.8%
  permeability compared with sodium pantothenate: clearly higher permeability

## CC(C)(CO)[C@@H](O)C(=O)NCCC(=O)[O-].[Na+] [Sodium pantothenate, sodium pantothenate, reference compound]
  Permeability (%): 18 ± 0.4%
